From patent US20210253562A1, “ACYLSUFONAMIDE COMPOUNDS USEFUL AS EP3 RECEPTOR ANTAGONISTS” (Janssen Pharmaceutica NV, priority 2018, published 2021)
Read-outs that look alike come from different tables or passages of the source.

How the values were obtained:
[1] = target: T1, EP3 membrane (EP3 receptor) (Homo sapiens, UniProt P43115); test: [3H]-PGE2 binding; EP3 competition binding (SPA)
T1 construct: purchased Millipore HTS092M
T1 sequence (P43115 1-390): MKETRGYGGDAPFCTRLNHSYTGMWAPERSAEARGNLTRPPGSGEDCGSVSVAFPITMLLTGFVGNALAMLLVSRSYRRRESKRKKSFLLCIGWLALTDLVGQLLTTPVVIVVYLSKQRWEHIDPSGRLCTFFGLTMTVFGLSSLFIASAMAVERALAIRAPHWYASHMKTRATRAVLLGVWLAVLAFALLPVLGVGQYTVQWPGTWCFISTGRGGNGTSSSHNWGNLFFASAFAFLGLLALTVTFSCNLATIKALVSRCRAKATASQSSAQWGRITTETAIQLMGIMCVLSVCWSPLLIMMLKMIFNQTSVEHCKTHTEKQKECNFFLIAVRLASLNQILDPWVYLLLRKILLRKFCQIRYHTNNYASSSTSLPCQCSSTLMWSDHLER
Summary of the method: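 SPA competition at room temperature, 2 h: EP3 membranes 2 μg/well, 2 nM [3H]-PGE2, 0.1% DMSO, in Tris/MgCl2/EDTA buffer pH 7.4. Compounds in 1:3 serial dilution; scintillation read; Ki by one-site nonlinear fit.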

[2] = target: T2, CHO cells over-expressing the EP3 receptor (Homo sapiens, UniProt P43115); test: CHO cell cAMP assay; EP3 cAMP antagonist dose response (sulprostone reference), HTRF; assay type: cell-based; conditions: sulprostone 700 nM (EC80) and FSK 2 μM (EC70); read-out: CHO_cAMP IC50
T2 construct: expressed in transfected cells; host or cells: CHO cells
T2 sequence (P43115 1-390): T1 sequence (P43115 1-390)
Summary of the method: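 EP3-overexpressing CHO cells pre-incubated with test compound, then stimulated 30 min at 37 °C with FSK (2 μM, EC70) plus sulprostone (700 nM, EC80); antagonism seen as restored cAMP. cAMP measured by HTRF 665/615 ratio, converted via on-plate standard curve. IC50 from Hill fit of 11-point dosing.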

Ki [1] | IC50 [2] | Ki ([1]; unit nM) | Structure (SMILES)
3 nM | 7 nM |  | COc1ccc(Cl)cc1S(=O)(=O)NC(=O)CC/C=C1\CCCc2cnn(Cc3ccc(Cl)cc3Cl)c21 [Compound #38, (E)-N-((5-chloro-2-methoxyphenyl)sulfonyl)-4-(1-(2,4-dichlorobenzyl)-1,4,5,6-tetrahydro-7H-indazol-7-ylidene)butanamide]
7 nM | 9 nM |  | Cc1ncc(S(=O)(=O)NC(=O)NC/C=C2\CCCc3cnn(Cc4ccc(Cl)cc4Cl)c32)s1 [Compound #139, (E)-N-((2-(1-(2,4-dichlorobenzyl)-1,4,5,6-tetrahydro-7H-indazol-7-ylidene)ethyl)carbamoyl)-2-methylthiazole-5-sulfonamide]
5 nM | 13 nM |  | O=C(NC/C=C1\CCCc2cnn(Cc3ccc(Cl)cc3Cl)c21)NS(=O)(=O)c1cc2ccccc2s1 [Compound #27, (E)-N-((2-(1-(2,4-dichlorobenzyl)-1,4,5,6-tetrahydro-7H-indazol-7-ylidene)ethyl)carbamoyl)benzo[b]thiophene-2-sulfonamide]
28 nM | 69 nM |  | O=C(NC/C(F)=C1\CCCc2cnn(Cc3ccc(Cl)cc3Cl)c21)NS(=O)(=O)c1ccc(Cl)cc1 [Compound #86, (Z)-4-chloro-N-((2-(1-(2,4-dichlorobenzyl)-1,4,5,6-tetrahydro-7H-indazol-7-ylidene)-2-fluoroethyl)carbamoyl)benzenesulfonamide]
4 nM | 18 nM |  | O=C(CC/C=C1\CCCc2cnn(-c3cccc(-c4ccc(Cl)cc4Cl)c3)c21)NS(=O)(=O)c1cc(Cl)c(Cl)s1 [Compound #53, (E)-4-(1-(2′,4′-dichloro-[1,1′-biphenyl]-3-yl)-1,4,5,6-tetrahydro-7H-indazol-7-ylidene)-N-((4,5-dichlorothiophen-2-yl)sulfonyl)butanamide]
26 nM | 74 nM |  | COc1ccc(S(=O)(=O)NC(=O)NC/C=C2\COCc3cnn(Cc4ccc(Cl)cc4Cl)c32)cn1 [Compound #67, (Z)—N-((2-(1-(2,4-dichlorobenzyl)-1,4-dihydropyrano[4,3-c]pyrazol-7(6H)-ylidene)ethyl)carbamoyl)-6-methoxypyridine-3-sulfonamide]
1 nM | 3 nM |  | O=C(CC/C=C1\COCc2cnn(Cc3ccc(Cl)cc3Cl)c21)NS(=O)(=O)c1cc(Cl)c(Cl)s1 [Compound #57, (Z)-4-(1-(2,4-dichlorobenzyl)-1,4-dihydropyrano[4,3-c]pyrazol-7(6H)-ylidene)-N-((4,5-dichlorothiophen-2-yl)sulfonyl)butanamide]
1 nM | 5 nM |  | O=C(NC/C=C1\CCCc2cnn(-c3ccc(Cl)cc3Cl)c21)NS(=O)(=O)c1cc(Cl)c(Cl)s1 [Compound #84, (E)-4,5-dichloro-N-((2-(1-(2,4-dichlorophenyl)-1,4,5,6-tetrahydro-7H-indazol-7-ylidene)ethyl)carbamoyl)thiophene-2-sulfonamide]
2 nM | 4 nM |  | O=C(NC/C(F)=C1\CCCc2cnn(Cc3ccc(Cl)cc3Cl)c21)NS(=O)(=O)c1ccc(F)c(F)c1 [Compound #156, (Z)—N-((2-(1-(2,4-dichlorobenzyl)-1,4,5,6-tetrahydro-7H-indazol-7-ylidene)-2-fluoroethyl)carbamoyl)-3,4-difluorobenzenesulfonamide]
 | 2 nM | 0.1 nM | O=C(CC/C=C1\CCCc2cnn(Cc3ccc(Cl)cc3Cl)c21)NS(=O)(=O)c1cc(Cl)c(Cl)s1 [Compound #8, (E)-4-(1-(2,4-dichlorobenzyl)-1,4,5,6-tetrahydro-7H-indazol-7-ylidene)-N-((4,5-dichlorothiophen-2-yl)sulfonyl)butanamide]
> 10000 nM | > 20000 nM |  | COc1ccc(F)cc1S(=O)(=O)NC(=O)NC/C(F)=C1/CCCc2cnn(-c3ccc4ccccc4c3)c21 [Compound #112, (E)-5-fluoro-N-((2-fluoro-2-(1-(naphthalen-2-yl)-1,4,5,6-tetrahydro-7H-indazol-7-ylidene)ethyl)carbamoyl)-2-methoxybenzenesulfonamide]
40 nM | 182 nM |  | O=C(NC/C(F)=C1\CCc2cnn(-c3ccc(C(F)(F)F)cc3)c21)NS(=O)(=O)c1cc(Cl)c(Cl)s1 [Compound #130, (Z)-4,5-dichloro-N-((2-fluoro-2-(1-(4-(trifluoromethyl)phenyl)-4,5-dihydrocyclopenta[c]pyrazol-6(1H)-ylidene)ethyl)carbamoyl)thiophene-2-sulfonamide]
750 nM | 11100 nM |  | O=C(NC/C=C1\CCCc2cnn(-c3ncc(Br)cn3)c21)NS(=O)(=O)c1ccc(Cl)cc1 [Compound #94, (E)-N-((2-(1-(5-bromopyrimidin-2-yl)-1,4,5,6-tetrahydro-7H-indazol-7-ylidene)ethyl)carbamoyl)-4-chlorobenzenesulfonamide]
43 nM | 230 nM |  | O=C(NC/C(F)=C1\COCc2cnn(-c3ccc(C(F)(F)F)cc3)c21)NS(=O)(=O)c1cc(Cl)c(Cl)s1 [Compound #119, (E)-4,5-dichloro-N-((2-fluoro-2-(1-(4-(trifluoromethyl)phenyl)-1,4-dihydropyrano[4,3-c]pyrazol-7(6H)-ylidene)ethyl)carbamoyl)thiophene-2-sulfonamide]
3 nM | 8 nM |  | COc1ccc(Cl)cc1S(=O)(=O)NC(=O)NC/C=C1\CCCc2cnn(Cc3ccc(Cl)cc3Cl)c21 [Compound #43, (E)-5-chloro-N-((2-(1-(2,4-dichlorobenzyl)-1,4,5,6-tetrahydro-7H-indazol-7-ylidene)ethyl)carbamoyl)-2-methoxybenzenesulfonamide]
2000 nM | 16000 nM |  | O=C(NC/C(F)=C1\COCc2cnn(-c3ccc(C(F)(F)F)cc3)c21)NS(=O)(=O)c1ccc(Cl)cc1 [Compound #118, (E)-4-chloro-N-((2-fluoro-2-(1-(4-(trifluoromethyl)phenyl)-1,4-dihydropyrano[4,3-c]pyrazol-7(6H)-ylidene)ethyl)carbamoyl)benzenesulfonamide]
51 nM | 251 nM |  | O=C(C/C=C1\CCCc2cnn(Cc3ccc(Cl)cc3Cl)c21)NS(=O)(=O)c1cc2ccccc2s1 [Compound #25, (E)-N-(benzo[b]thiophen-2-ylsulfonyl)-3-(1-(2,4-dichlorobenzyl)-1,4,5,6-tetrahydro-7H-indazol-7-ylidene)propenamide]
27 nM | 32 nM |  | COc1ccc(F)c(S(=O)(=O)NC(=O)NC/C=C2\COCc3cnn(Cc4ccc(Cl)cc4Cl)c32)c1 [Compound #68, (Z)—N-((2-(1-(2,4-dichlorobenzyl)-1,4-dihydropyrano[4,3-c]pyrazol-7(6H)-ylidene)ethyl)carbamoyl)-2-fluoro-5-methoxybenzenesulfonamide]
54 nM | 228 nM |  | COc1ccc(Cl)cc1S(=O)(=O)NC(=O)NC/C(F)=C1/c2c(cnn2Cc2ccc(Cl)cc2Cl)CCC1F (stereo not shown) [Compound #103, (E)-5-chloro-N-((2-(1-(2,4-dichlorobenzyl)-6-fluoro-1,4,5,6-tetrahydro-7H-indazol-7-ylidene)-2-fluoroethyl)carbamoyl)-2-methoxybenzenesulfonamide]
373 nM | 2900 nM |  | O=C(C/C=C1\CCCc2cnn(Cc3ccc(Cl)cc3Cl)c21)NS(=O)(=O)c1cnc2ccccc2c1 [Compound #22, (E)-3-(1-(2,4-dichlorobenzyl)-1,4,5,6-tetrahydro-7H-indazol-7-ylidene)-N-(quinolin-3-ylsulfonyl)propenamide]
